Source: patent EP1429719B1, “ANTI-INFLAMMATORY DERMOCOSMETOLOGIC COMPOSITION IN PARTICULAR FOR TREATING ACNE AND SEBORRHEIC DERMATITIS” (Pierre Fabre Dermo-Cosmetique, priority 2001, dated 2003)

Tested on: prostaglandine 6KF1α
Assay: Production of prostaglandin 6KF1α by HaCaT human keratinocytes stimulated with calcium ionophore A23187 (ELISA)
Format: cell-based, humain
Conditions: 5 h culture; for PG6KF1α: n = 3
From the text: Conformément à la présente invention, il a été mis en évidence une synergie d'activité anti-inflammatoire du lactamide et du glycyrrhétinate de zinc et/ou du glycyrrhétinate de stéaryl et/ou de glycyrrhétinate d'ammonium. Cette synergie a été objectivée à la suite d'une évaluation sur la production de prostaglandine 6KF1α par le kératynocyte humain.
Dans cette étude, on s'est intéressé en particulier à une prostaglandine, la PG6KF1α, métabolite stable de la prostarycline, qui est un des métabolites majeurs produits par le kératinocyte stimulé, et représentatif de la modulation de la production des métabolites de l'acide arachidonique issus de la voie de la cyclo-oxygénase.
Sur ce modèle, on a évalué l'activité du glycyrrhétinate de zinc en association avec le lactamide sur la production de PG6KF1α induite chez le kératinocyte par un stimulant de la cascade de l'acide arachidonique, le ionophore calcique A23187.
On a réalisé ensuite la même étude en évaluant l'activité du stéaryl glycyrrhétinate en association avec le lactamide.
La suspension de kératinocytes humains HaCaT dans le RPMI 10% SVF est distribuée dans les plaques 6 puits (1x106 cellules/2ml/puits) et incubée pendant 16 heures à 37°C dans une atmosphère à 5% CO2. Les kératinocytes sont alors rincés avec du PBS pour éliminer les cellules non-adhérentes puis exposés aux produits à tester inclus dans du RPMI sans SVF (qui pourrait interférer dans le dosage).
Le lactamide MEA est directement solubilisé dans le RPMI sans SVF à une concentration de 1 0mg/ml.
Le glycyrrhétinate de zinc est préparé dans l'éthanol absolu à 100 mg/ml puis repris dans le RPMI sans SVF à 10 mg/ml.
Le stéaryl glycyrrhétinate est préparé dans le DMSO à […] puis repris dans le RPMI sans SVF à 10mg/ml.
Le glycyrrhétinate d'ammonium est préparé dans l'éthanol absolu à 100 mg/ml puis repris dans le RPMI sans SVF à 25 mg/ml.
Pour chaque lot, 3 puits sont réalisés. Les cellules sont incubées pendant 1 heure avec les produits à tester puis le ionophore calcique A23187, est ajouté pendant 5 heures à la concentration 5µM.
Les milieux de culture de chacun des puits sont ensuite récupérés, centrifugés à 3000 tr/mn et conservés à -80°C.
La production de prostaglandine 6KF1α pour chacun des essais est mesurée par Kit Elisa EUROMEDEX.
Les lots suivants ont été réalisés : • Lot témoin • Lot témoin stimulé A23187 5µM • Lactamide MEA 500µg/ml + A23187 5µM • Glycyrrhétinate de zinc 10 µg/ml + A23187 5µM • Lactamide MEA 500µg/ml/Glycyrrhétinate de zinc 10µg/ml + A23187 5µM • Stéaryl glycyrrhétinate 50µg/ml + A23187 5µM • Lactamide MEA 500µg/ml/Stéaryl glycyrrhétinate 50µg/ml + A23187 5µM • Glycyrrhétinate d'ammonium 25 µg/ml + A23187 5µM • Lactamide MEA 500 µg/ml/Glycyrrhétinate d'ammonium 25 µg/ml + A23187 5µM.
Les résultats sont exprimés en picogrammes de prostaglandine 6KF1α pour 1x10^6 kératinocytes et par ml de culture.
L'analyse statistique des résultats est réalisée par une analyse de variance et par le test de Dunnett.

**Q.** With `CC1(C)[C@@H](O)CC[C@]2(C)[C@H]3C(=O)C=C4[C@@H]5C[C@@](C)(C(=O)O)CC[C@]5(C)CC[C@@]4(C)[C@]3(C)CC[C@@H]12` [Glycyrrhétinate d'ammonium, glycyrrhétinate d'ammonium] as the compound, how does the PG6KF1α (Glycyrrhétinate d'ammonium 25µg/ml + A23187 5µM) read?
**A.** Its PG6KF1α is 80,74 ± 3,67 pg/1x10^6 kératinocytes/ml.

**Q.** What about the inhibition at 25 µg/mL (Homo sapiens, Glycyrrhétinate d'ammonium 25µg/ml + A23187 5µM, n = 3, read-out: % activité / Témoin A23187) of the same compound?
**A.** The inhibition at 25 µg/mL was 30%.

**Q.** How did the inhibition at 500 µg/mL (Homo sapiens, Lactamide MEA 500µg/ml + A23187 5µM, n = 3, read-out: % activité / Témoin A23187) turn out when `CC(O)C(=O)NCCO` (stereo not shown) [Lactamide MEA, monoéthanolamide de l'acide lactique] was run?
**A.** Its inhibition at 500 µg/mL is -8%.

**Q.** What about the PG6KF1α (Lactamide MEA 500µg/ml + A23187 5µM, 1 h pre-incubation) of the same compound?
**A.** Its PG6KF1α is 124,87 ± 11,50 pg/1x10^6 kératinocytes/ml.

**Q.** Which results are given for `CCCCCCCCCCCCCCCCCCOC(=O)[C@@]1(C)CC[C@]2(C)CC[C@]3(C)C(=CC(=O)[C@@H]4[C@@]5(C)CC[C@H](O)C(C)(C)[C@@H]5CC[C@]43C)[C@@H]2C1` [Stéaryl glycyrrhétinate, stéaryl glycyrrhétinate]?
**A.** inhibition at 50 µg/mL (Homo sapiens, Stéaryl glycyrrhétinate 50µg/ml + A23187 5µM, n = 3, read-out: % activité / Témoin A23187): 31%; PG6KF1α (Stéaryl glycyrrhétinate 50µg/ml + A23187 5µM): 79,87 ± 5,14 pg/1x10^6 kératinocytes/ml

**Q.** Which PG6KF1α (Glycyrrhétinate de zinc 10µg/ml + A23187 5µM) does the source give for glycyrrhétinate de zinc here?
**A.** Its PG6KF1α is 78,37 ± 2,55 pg/1x10^6 kératinocytes/ml.
